The target of one assay is T1, SMARCA2 (Homo sapiens, UniProt P51531).
T1 construct: such that the cells express both SMARCA2 and SMARCA4; endogenous in cells; host or cells: A549 (NSCLC) cells with SMARCA4 mutation corrected to wild type
The experiment in a line: Protein degradation assay in A549 cells, SMARCA2 levels by WES capillary electrophoresis. The following applies: A549 (NSCLC) cells with SMARCA4 mutation corrected to wild type, 18 h incubation; for DC50: concentration at which half maximal degradation is achieved, normalised to GAPDH; for Dmax: maximal amount of degraded protein relative to initial levels. Type of assay: cell-based. The procedure: (§1) For the protein degradation assay, A549 (NSCLC) cells are used in which the inactivating SMARCA4 mutation has been corrected to wild type, such that the cells express both SMARCA2 and SMARCA4. 35000 cells in F12K Medium +10% FBS (100 μL/well) are seeded in a Greiner 96 well F-bottom plate and incubated at 37° C. overnight. Compounds are added from DMSO stock solution using ECHO Access™ workstation or HP D300 Digital Dispenser and cells are incubated at 37° C. for 18 h. Medium is removed, cells are washed with PBS, PBS is removed and 30 μL cold Lysis Buffer (1% Triton, 350 mM KCl, 10 mM Tris, Halt Phosphatase-Protease Inhibitors, 10 mM DTT, Benzonase 0.5 μL/mL) is added to each well. Cells are lysed for 20 min at 4° C. on a bioshake at 800 rpm before insoluble debris is pelleted by centrifugation for 20 min at 4000 rpm at 4° C. The supernatant is transferred to a fresh PCR plate. SMARCA2 levels are determined on a WES capillary electrophoresis instrument (Proteinsimple) using rabbit anti-SMARCA2 antibody (1:25, Sigma #HPA029981), SMARCA4 antibody (CellSignaling #49360, 1:25), PBRM1 antibody (Bethyl #A301-591A-M, 1:40) and anti-GAPDH antibody (1:100, Abcam #ab9485) for normalization.
The compounds 1-1 to 1-18 according to the invention have been tested in the above described assay. The majority of the compounds show degradation of SMARCA2 and SMARCA4 protein in A549 cells with DC50 in the range of 10-1000 nM (i.e. compound concentration at which half maximal degradation is achieved). The Dmax represents the efficiency of degradation and gives the maximal amount of degraded protein relative to initial levels. The majority of the compounds reach degradation levels >80%.

The target of a further assay is T2, SMARCA4 (Homo sapiens, UniProt P51532).
T2 construct: endogenous in cells; host or cells: A549 (NSCLC) cells with SMARCA4 mutation corrected to wild type
T2 sequence (P51532 whole entry): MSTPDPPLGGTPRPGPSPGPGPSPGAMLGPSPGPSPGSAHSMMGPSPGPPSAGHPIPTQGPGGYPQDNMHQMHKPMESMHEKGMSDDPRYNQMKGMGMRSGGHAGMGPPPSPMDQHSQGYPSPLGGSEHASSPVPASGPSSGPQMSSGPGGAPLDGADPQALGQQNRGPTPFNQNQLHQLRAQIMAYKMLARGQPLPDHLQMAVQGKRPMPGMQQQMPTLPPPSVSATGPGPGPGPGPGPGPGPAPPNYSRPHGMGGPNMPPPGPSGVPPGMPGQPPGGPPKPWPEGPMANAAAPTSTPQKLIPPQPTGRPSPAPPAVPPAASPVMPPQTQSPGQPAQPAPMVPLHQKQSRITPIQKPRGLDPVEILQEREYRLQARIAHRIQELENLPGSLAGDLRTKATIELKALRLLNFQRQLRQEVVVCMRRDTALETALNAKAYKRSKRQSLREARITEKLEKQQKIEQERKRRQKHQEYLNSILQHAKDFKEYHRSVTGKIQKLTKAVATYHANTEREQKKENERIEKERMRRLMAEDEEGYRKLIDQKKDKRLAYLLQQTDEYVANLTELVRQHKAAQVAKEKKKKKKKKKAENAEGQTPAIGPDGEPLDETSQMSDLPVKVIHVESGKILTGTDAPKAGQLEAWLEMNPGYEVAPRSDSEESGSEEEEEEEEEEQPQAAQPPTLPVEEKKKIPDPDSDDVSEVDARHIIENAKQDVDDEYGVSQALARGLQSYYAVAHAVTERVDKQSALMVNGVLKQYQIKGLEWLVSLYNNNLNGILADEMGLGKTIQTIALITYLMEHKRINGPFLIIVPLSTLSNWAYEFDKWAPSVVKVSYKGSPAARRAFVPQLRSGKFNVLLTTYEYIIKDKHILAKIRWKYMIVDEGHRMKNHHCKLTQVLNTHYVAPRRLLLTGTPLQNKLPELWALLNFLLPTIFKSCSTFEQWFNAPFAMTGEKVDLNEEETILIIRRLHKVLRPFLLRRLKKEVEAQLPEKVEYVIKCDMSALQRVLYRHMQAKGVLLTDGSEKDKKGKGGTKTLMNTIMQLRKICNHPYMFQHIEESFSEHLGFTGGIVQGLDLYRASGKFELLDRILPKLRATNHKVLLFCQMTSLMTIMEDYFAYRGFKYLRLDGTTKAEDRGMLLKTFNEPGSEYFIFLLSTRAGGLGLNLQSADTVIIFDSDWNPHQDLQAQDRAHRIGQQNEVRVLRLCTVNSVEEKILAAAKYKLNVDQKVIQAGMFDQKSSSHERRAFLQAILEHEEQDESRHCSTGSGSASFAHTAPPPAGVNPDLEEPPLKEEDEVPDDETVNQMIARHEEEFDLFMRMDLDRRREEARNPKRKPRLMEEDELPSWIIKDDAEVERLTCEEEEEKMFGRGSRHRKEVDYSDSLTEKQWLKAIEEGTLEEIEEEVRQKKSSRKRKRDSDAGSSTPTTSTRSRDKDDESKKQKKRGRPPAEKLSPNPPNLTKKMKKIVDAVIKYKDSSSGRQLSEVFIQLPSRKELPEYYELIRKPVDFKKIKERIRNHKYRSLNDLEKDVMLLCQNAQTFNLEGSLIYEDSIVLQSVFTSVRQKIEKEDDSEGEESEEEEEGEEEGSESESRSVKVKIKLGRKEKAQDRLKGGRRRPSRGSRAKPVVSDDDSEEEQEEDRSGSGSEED
The experiment in a line: Protein degradation assay in A549 cells, SMARCA4 levels by WES capillary electrophoresis. Type of assay: cell-based. The following applies: A549 (NSCLC) cells with SMARCA4 mutation corrected to wild type, 18 h incubation; for DC50: concentration at which half maximal degradation is achieved, normalised to GAPDH; for Dmax: maximal amount of degraded protein relative to initial levels. The procedure:
as §1
The Dmax represents the efficiency of degradation and gives the maximal amount of degraded protein relative to initial levels.

In patent publication US12187719B2, “Proteolysis targeting chimera (PROTACS) as degraders of SMARCA2 and /or SMARCA4” (Boehringer Ingelheim International GmbH, priority 2018, dated 2025) one finds DC50 and Dmax data, which are given here for 15 compounds.

T1 sequence (P51531 whole entry): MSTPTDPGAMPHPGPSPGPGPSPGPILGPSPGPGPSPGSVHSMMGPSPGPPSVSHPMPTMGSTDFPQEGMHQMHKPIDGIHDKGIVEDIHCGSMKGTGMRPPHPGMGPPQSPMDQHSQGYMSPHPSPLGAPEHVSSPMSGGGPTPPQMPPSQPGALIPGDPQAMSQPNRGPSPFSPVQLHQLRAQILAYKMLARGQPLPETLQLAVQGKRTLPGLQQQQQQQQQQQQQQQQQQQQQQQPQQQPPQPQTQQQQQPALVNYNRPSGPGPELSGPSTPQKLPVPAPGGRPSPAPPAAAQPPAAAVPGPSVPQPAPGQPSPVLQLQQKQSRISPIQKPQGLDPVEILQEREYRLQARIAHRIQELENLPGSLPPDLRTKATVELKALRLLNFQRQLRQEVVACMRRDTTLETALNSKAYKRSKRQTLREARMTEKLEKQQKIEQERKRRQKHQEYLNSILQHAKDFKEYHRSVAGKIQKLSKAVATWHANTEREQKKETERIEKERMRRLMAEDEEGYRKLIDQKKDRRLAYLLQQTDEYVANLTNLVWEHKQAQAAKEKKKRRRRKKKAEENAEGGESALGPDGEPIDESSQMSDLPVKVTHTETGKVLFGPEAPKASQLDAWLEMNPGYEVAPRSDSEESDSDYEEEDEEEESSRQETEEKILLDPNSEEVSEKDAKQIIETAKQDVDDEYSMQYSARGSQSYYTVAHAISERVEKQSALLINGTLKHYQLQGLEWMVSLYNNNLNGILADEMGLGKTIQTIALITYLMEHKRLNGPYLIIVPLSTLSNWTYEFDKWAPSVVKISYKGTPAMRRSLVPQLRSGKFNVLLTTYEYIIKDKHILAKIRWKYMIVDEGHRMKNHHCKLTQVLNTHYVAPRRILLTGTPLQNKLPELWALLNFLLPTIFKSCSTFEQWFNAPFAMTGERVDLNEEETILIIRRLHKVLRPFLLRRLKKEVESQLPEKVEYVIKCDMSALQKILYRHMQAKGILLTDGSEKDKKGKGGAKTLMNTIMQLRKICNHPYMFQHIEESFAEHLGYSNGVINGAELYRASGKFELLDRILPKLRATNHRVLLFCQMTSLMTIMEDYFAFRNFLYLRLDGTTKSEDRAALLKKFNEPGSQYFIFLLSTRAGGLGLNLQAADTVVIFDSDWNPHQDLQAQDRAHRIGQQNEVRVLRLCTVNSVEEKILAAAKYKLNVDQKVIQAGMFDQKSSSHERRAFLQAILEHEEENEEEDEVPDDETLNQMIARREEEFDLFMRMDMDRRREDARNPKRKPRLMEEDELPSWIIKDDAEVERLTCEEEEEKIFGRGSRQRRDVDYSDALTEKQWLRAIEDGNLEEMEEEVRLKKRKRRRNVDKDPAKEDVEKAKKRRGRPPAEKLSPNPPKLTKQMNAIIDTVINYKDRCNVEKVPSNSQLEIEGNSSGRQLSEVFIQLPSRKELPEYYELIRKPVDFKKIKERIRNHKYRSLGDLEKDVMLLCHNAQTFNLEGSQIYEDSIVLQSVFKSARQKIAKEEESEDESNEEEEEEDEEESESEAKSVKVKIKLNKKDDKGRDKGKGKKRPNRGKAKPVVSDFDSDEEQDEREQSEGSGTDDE

What is called DC50 is the concentration at which degradation of the target reaches its halfway point. Read a low DC50 as a more potent degrader. Broadly, the Dmax is the largest share of the target that was removed. High values mean deep degradation, low ones shallow degradation. For `Cc1ncsc1-c1ccc(CNC(=O)[C@@H]2C[C@@H](O)CN2C(=O)[C@@H](NC(=O)C2(F)CC2)C(C)(C)C)c(OCc2ccc(CCN3CCN(c4cc(-c5ccccc5O)nnc4N)CC3)cc2)c1` [Compound I-12], on SMARCA2, the DC50 was ~1000 nM and the Dmax turned out to be 40%.

On SMARCA4, `Cc1ncsc1-c1ccc(CNC(=O)[C@@H]2C[C@@H](O)CN2C(=O)[C@@H](NC(=O)C2(F)CC2)C(C)(C)C)c(OCCOc2ccc(CN3CCN(c4cc(-c5ccccc5O)nnc4N)CC3)cc2)c1` [Compound I-7] had a DC50 of 16 nM and a Dmax of 97%. On SMARCA2, this compound gave a DC50 of 12 nM and a Dmax of 98%.

On SMARCA4, `Cc1ncsc1-c1ccc(CNC(=O)[C@@H]2C[C@@H](O)CN2C(=O)[C@@H](NC(=O)C2(F)CC2)C(C)(C)C)c(OCc2ccc(CN3CCN(c4cc(-c5ccccc5O)nnc4N)CC3)cc2)c1` [Compound I-8] came in with a DC50 of 168 nM and a Dmax of 59%. For the same compound, on SMARCA2, the DC50 was 56 nM and the Dmax worked out at 88%.

Consider `Cc1ncsc1-c1ccc(CNC(=O)[C@@H]2C[C@@H](O)CN2C(=O)[C@@H](NC(=O)C2(F)CC2)C(C)(C)C)c(OCCCCOc2ccc(CN3CCN(c4cc(-c5ccccc5O)nnc4N)CC3)cc2)c1` [Compound I-9], for which, on SMARCA4, it took 170 nM to reach half-maximal degradation (DC50) and the Dmax is 83%. Also, at SMARCA2, it took 236 nM to reach half-maximal degradation (DC50) and the Dmax came out at 85%.

As to `Cc1ncsc1-c1ccc(CNC(=O)[C@@H]2C[C@@H](O)CN2C(=O)[C@@H](NC(=O)C2(F)CC2)C(C)(C)C)c(OCCOCCOCCN2CCN(c3cc(-c4ccccc4O)nnc3N)CC2)c1` [Compound I-5], the Dmax at SMARCA4 was 84%. For the same compound, on SMARCA2, the DC50 was found to be 2540 nM and the Dmax stood at 89%.

Consider `Cc1ncsc1-c1ccc(CNC(=O)[C@@H]2C[C@@H](O)CN2C(=O)[C@@H](NC(=O)C2(F)CC2)C(C)(C)C)c(OCCc2ccc(C(=O)N3CCN(c4cc(-c5ccccc5O)nnc4N)CC3)cc2)c1` [Compound I-18], for which, at SMARCA4, it took 188 nM to reach half-maximal degradation (DC50) and the Dmax was 81%. At SMARCA2, this compound registered a DC50 of 525 nM and a Dmax of 98%.

As for `Cc1ncsc1-c1ccc(CNC(=O)[C@@H]2C[C@@H](O)CN2C(=O)[C@@H](NC(=O)C2(F)CC2)C(C)(C)C)c(OCCCOCCN2CCN(c3cc(-c4ccccc4O)nnc3N)CC2)c1` [Compound I-3], at SMARCA4, the DC50 came to 2040 nM and the Dmax amounted to 100%.

Regarding `Cc1ncsc1-c1ccc(CNC(=O)[C@@H]2C[C@@H](O)CN2C(=O)[C@@H](NC(=O)C2(F)CC2)C(C)(C)C)c(OCCCc2ccc(CN3CCN(c4cc(-c5ccccc5O)nnc4N)CC3)cc2)c1` [Compound I-14], on SMARCA4, the DC50 was 25 nM and the Dmax worked out at 92%. Also, on SMARCA2, the DC50 was 58 nM and the Dmax amounted to 90%.

In the case of `Cc1ncsc1-c1ccc(CNC(=O)[C@@H]2C[C@@H](O)CN2C(=O)[C@@H](NC(=O)C2(F)CC2)C(C)(C)C)c(OCCCOc2ccc(CN3CCN(c4cc(-c5ccccc5O)nnc4N)CC3)cc2)c1` [Compound I-11], on SMARCA4, half-maximal degradation (DC50) was put at 16 nM and the Dmax was 100%. At SMARCA2, this compound displayed a DC50 of 26 nM and a Dmax of 99%.

Take `Cc1ncsc1-c1ccc(CNC(=O)[C@@H]2C[C@@H](O)CN2C(=O)[C@@H](NC(=O)C2(F)CC2)C(C)(C)C)c(OCCc2ccc(OCCN3CCN(c4cc(-c5ccccc5O)nnc4N)CC3)cc2)c1` [Compound I-10]: the DC50 was found to be 26 nM on SMARCA4 and 41 nM on SMARCA2. Besides, the Dmax at SMARCA4 and on SMARCA2 was 99% each time.

At SMARCA4, `Cc1ncsc1-c1ccc(CNC(=O)[C@@H]2C[C@@H](O)CN2C(=O)[C@@H](NC(=O)C2(F)CC2)C(C)(C)C)c(OCCc2ccc(CN3CCN(c4cc(-c5ccccc5O)nnc4N)CC3)cc2)c1` [Compound I-2] had a DC50 of 117 nM and a Dmax of 93%. At SMARCA2, this compound had a DC50 of 67 nM and a Dmax of 91%.

In the case of `Cc1ncsc1-c1ccc(CNC(=O)[C@@H]2C[C@@H](O)CN2C(=O)[C@@H](NC(=O)C2(F)CC2)C(C)(C)C)c(OCCCCCCCOCCN2CCN(c3cc(-c4ccccc4O)nnc3N)CC2)c1` [Compound I-6], the DC50 at SMARCA4 was found to be 219 nM; at SMARCA2 it was 172 nM. Further, the Dmax is 89% on SMARCA4 and 83% at SMARCA2.

`Cc1ncsc1-c1ccc(CNC(=O)[C@@H]2C[C@@H](O)CN2C(=O)[C@@H](NC(=O)C2(F)CC2)C(C)(C)C)c(OCCCCOCCN2CCN(c3cc(-c4ccccc4O)nnc3N)CC2)c1` [Compound I-4]: the DC50 came out at 735 nM on SMARCA4 and 1000 nM at SMARCA2. Further, the figures for the Dmax at SMARCA4 and on SMARCA2 were 87% and 70%, respectively.

On SMARCA4, `Cc1ncsc1-c1ccc(CNC(=O)[C@@H]2C[C@@H](O)CN2C(=O)[C@@H](NC(=O)C2(F)CC2)C(C)(C)C)c(OCCCCCCCN2CCN(c3cc(-c4ccccc4O)nnc3N)CC2)c1` [Compound I-1] displayed a DC50 of 1240 nM and a Dmax of 70%. On SMARCA2, the DC50 stood at 450 nM and the Dmax amounted to 45%.

On SMARCA4, `Cc1ncsc1-c1ccc(CNC(=O)[C@@H]2C[C@@H](O)CN2C(=O)[C@@H](NC(=O)C2(F)CC2)C(C)(C)C)c(OCCc2cccc(CN3CCN(c4cc(-c5ccccc5O)nnc4N)CC3)c2)c1` [Compound I-13] returned a DC50 of 634 nM and a Dmax of 97%. Besides, on SMARCA2, the DC50 amounted to 189 nM and the Dmax amounted to 88%.
